{"source": "patent US7364874B2", "about": "“Mediucm for detecting Van A and Van B vancomycin-resistant entercocci and method of using the same” (priority 2001, dated 2008)", "key": {"Van A VRE [1]": {"test_system": "Van A VRE", "assay": "microbe, parasite or virus in culture", "format": "cell-based, E. faecium", "conditions": "Enterococcus, read-out: vancomycin MIC"}, "Van B VRE [2]": {"test_system": "Van B VRE", "assay": "microbe, parasite or virus in culture", "format": "cell-based, E. faecium, E. faecalis", "conditions": "Enterococcus, read-out: vancomycin MIC"}, "[3]": {"test_system": "Van C type, Enterococcus casseliflavus", "assay": "Test Example 2: vancomycin MIC changes when D-lactic acid (DL-sodium lactate) is added (checkerboard method)", "format": "cell-based"}, "[4]": {"test_system": "Van C type, Enterococcus gallinarum", "assay": "Test Example 2: vancomycin MIC changes when D-lactic acid (DL-sodium lactate) is added (checkerboard method)", "format": "cell-based"}, "Van A VRE [5]": {"test_system": "Van A VRE", "assay": "Test Example 2: vancomycin MIC changes when D-lactic acid (DL-sodium lactate) is added (checkerboard method)", "format": "cell-based, E. faecium"}, "Van B VRE [6]": {"test_system": "Van B VRE", "assay": "Test Example 2: vancomycin MIC changes when D-lactic acid (DL-sodium lactate) is added (checkerboard method)", "format": "cell-based, E. faecium, E. faecalis"}, "Van C VRE": {"test_system": "Van C VRE", "conditions": "cited from earlier work"}, "Van D VRE": {"test_system": "Van D VRE", "conditions": "cited from earlier work"}, "Van E VRE": {"test_system": "Van E VRE", "conditions": "cited from earlier work"}, "Van G VRE": {"test_system": "Van G VRE", "conditions": "cited from earlier work"}, "[7]": {"test_system": "Van C type, Enterococcus casseliflavus", "assay": "microbe, parasite or virus in culture", "conditions": "read-out: vancomycin MIC, with addition of D-cycloserine, all strains of the group"}, "[8]": {"test_system": "Van C type, Enterococcus gallinarum", "assay": "microbe, parasite or virus in culture", "conditions": "read-out: vancomycin MIC, with addition of D-cycloserine, all strains of the group"}, "[9]": {"test_system": "Enterococcus faecalis that does not carry vancomycine resistance genes (incl. ATCC29212)", "assay": "Test Example 2: vancomycin MIC changes when D-lactic acid (DL-sodium lactate) is added (checkerboard method)", "format": "cell-based", "conditions": "DL-sodium lactate 0.025-[…]"}, "[10]": {"test_system": "Enterococcus faecium that does not carry vancomycine resistance genes", "assay": "Test Example 2: vancomycin MIC changes when D-lactic acid (DL-sodium lactate) is added (checkerboard method)", "format": "cell-based", "conditions": "DL-sodium lactate 0.025-[…]"}, "[11]": {"test_system": "Enterococcus avium that does not carry vancomycine resistance genes", "assay": "Test Example 2: vancomycin MIC changes when D-lactic acid (DL-sodium lactate) is added (checkerboard method)", "format": "cell-based", "conditions": "DL-sodium lactate 0.025-[…]"}, "Van A VRE [12]": {"test_system": "Van A VRE", "conditions": "carries van A gene; cited from earlier work"}, "Van B VRE [13]": {"test_system": "Van B VRE", "conditions": "carries van B gene; cited from earlier work"}, "[14]": {"conditions": "Enterococcus, VRE, read-out: vancomycin MIC"}}, "note": "Where two headings read alike, the source gives them in different places.", "data": [{"compound": "CN[C@H](CC(C)C)C(=O)N[C@H]1C(=O)N[C@@H](CC(N)=O)C(=O)N[C@H]2C(=O)N[C@H]3C(=O)N[C@H](C(=O)N[C@H](C(=O)O)c4cc(O)cc(O)c4-c4cc3ccc4O)[C@H](O)c3ccc(c(Cl)c3)Oc3cc2cc(c3O[C@@H]2O[C@H](CO)[C@@H](O)[C@H](O)[C@H]2O[C@H]2C[C@](C)(N)[C@H](O)[C@H](C)O2)Oc2ccc(cc2Cl)[C@H]1O", "note": "[vancomycin]", "values": [{"measurement": "MIC", "setting": "Van A VRE [1]", "result": "> 32", "unit": "µg/mL"}, {"measurement": "MIC", "setting": "Van B VRE [2]", "result": "> 32", "unit": "µg/mL"}, {"measurement": "MIC", "setting": "[3]; Enterococcus casseliflavus, read-out: vancomycin MIC, with addition of DL-sodium lactate, all strains of the group", "result": "< 32", "unit": "µg/mL"}, {"measurement": "MIC", "setting": "[4]; Enterococcus gallinarum, GALLINARUM, read-out: vancomycin MIC, with addition of DL-sodium lactate, all strains of the group", "result": "< 32", "unit": "µg/mL"}, {"measurement": "MIC", "setting": "Van A VRE [5]; [14]", "result": "> 32", "unit": "µg/mL"}, {"measurement": "MIC", "setting": "Van B VRE [6]; [14]", "result": "> 32", "unit": "µg/mL"}, {"measurement": "minimum inhibitory concentration (MIC)", "setting": "Van C VRE", "result": "2 to 32", "unit": "µg/mL"}, {"measurement": "minimum inhibitory concentration (MIC)", "setting": "Van D VRE", "result": "64 to 1024", "unit": "µg/mL"}, {"measurement": "minimum inhibitory concentration (MIC)", "setting": "Van E VRE", "result": 16, "unit": "µg/mL"}, {"measurement": "minimum inhibitory concentration (MIC)", "setting": "Van G VRE", "result": "12 to 16", "unit": "µg/mL"}, {"measurement": "MIC", "setting": "[7]", "result": "< 32", "unit": "µg/mL"}, {"measurement": "MIC", "setting": "[8]", "result": "< 32", "unit": "µg/mL"}]}, {"compound": "CC(O)C(=O)[O-].[Na+]", "note": "(racemic) [DL-sodium lactate]", "values": [{"measurement": "effect of the addition of DL-sodium lactate on the vancomycin MIC", "setting": "[9]", "result": "did not change the vancomycin MIC"}, {"measurement": "effect of the addition of DL-sodium lactate on the vancomycin MIC", "setting": "[10]", "result": "did not change the vancomycin MIC"}, {"measurement": "effect of the addition of DL-sodium lactate on the vancomycin MIC", "setting": "[11]", "result": "did not change the vancomycin MIC"}, {"measurement": "effect of the addition of DL-sodium lactate on the vancomycin MIC", "setting": "[3]; DL-sodium lactate 0.025-[…]", "result": "The addition of DL-sodium lactate did not change the vancomycin"}, {"measurement": "effect of the addition of DL-sodium lactate on the vancomycin MIC", "setting": "[4]; DL-sodium lactate 0.025-[…]", "result": "The addition of DL-sodium lactate did not change the vancomycin"}, {"measurement": "effect of the addition of DL-sodium lactate on the vancomycin MIC", "setting": "Van A VRE [5]; DL-sodium lactate 0.025-[…], 5 strains", "result": "increased the vancomycin MIC or maintained the vancomycin MIC as high as more than 512 μg/ml"}, {"measurement": "optimum concentration of addition of DL-sodium lactate", "setting": "Van B VRE [6]; for increasing the vancomycin MIC", "result": 0.2, "unit": "mol/L"}, {"measurement": "concentration of DL-sodium lactate at which the organisms tend to grow worse", "setting": "Van B VRE [6]; growth worse in line with the added amount", "result": "more than 0.4 mol/l"}]}, {"compound": "teicoplanin", "values": [{"measurement": "minimum inhibitory concentration (MIC)", "setting": "Van A VRE [12]", "result": "16 to 512", "unit": "µg/mL"}, {"measurement": "minimum inhibitory concentration (MIC)", "setting": "Van B VRE [13]", "result": "0.5 to 1", "unit": "µg/mL"}, {"measurement": "minimum inhibitory concentration (MIC)", "setting": "Van C VRE; carries van C gene", "result": "0.5 to 1", "unit": "µg/mL"}, {"measurement": "minimum inhibitory concentration (MIC)", "setting": "Van D VRE; carries van D gene", "result": "4 to 1024", "unit": "µg/mL"}, {"measurement": "minimum inhibitory concentration (MIC)", "setting": "Van E VRE; carries van E gene", "result": 0.5, "unit": "µg/mL"}, {"measurement": "minimum inhibitory concentration (MIC)", "setting": "Van G VRE; carries van G gene", "result": 0.5, "unit": "µg/mL"}]}]}
